Measurements from ChEMBL document CHEMBL1152415, “Potent antitumor bifunctional DNA alkylating agents, synthesis and biological activities of 3a-aza-cyclopenta[a]indenes” (Bioorg Med Chem, 2009).
pIC50: −log10 of the molar value. Calls of active or inactive are those of the source. The rule behind the calls is not given here.

What was measured:
MX1 [1] = assay: Antitumor activity in human MX1 cells xenografted athymic nu/nu mouse assessed as complete remission of tumor at 5 mg/kg, iv administered daily once for 3 days; assay type: functional, organism-based; design: dose 5 mg/kg
CCRF-CEM [2] = assay: Cytotoxicity against human CCRF-CEM cells after 72 hrs by XTT assay; assay type: functional, cell-based; settings: read-out: IC50
[3] = Cytotoxicity against human H1299 cells after 72 hrs by WST-1 assay; assay type: functional, cell-based; settings: NCI-H1299, 72 h
MX1 [4] = assay: Cytotoxicity against human MX1 cells after 72 hrs by SRB assay; assay type: functional, cell-based; settings: MX1, 72 h
Nucleic Acid [5] = assay: Induction of pEGFP-N1 plasmid DNA interstrand cross-linking at 20 uM after 2 hrs by alkaline agarose gel shift assay; assay type: nucleic-acid assay
CCRF-CEM [6] = assay: Cytotoxicity against human vinblastine-resistant CCRF-CEM cells after 72 hrs by XTT assay; assay type: functional, cell-based
Nucleic Acid [7] = assay: Induction of pEGFP-N1 plasmid DNA interstrand cross-linking at 1 uM after 2 hrs by alkaline agarose gel shift assay; assay type: nucleic-acid assay
MX1 [8] = assay: Antitumor activity in human MX1 cells xenografted athymic nu/nu mouse assessed as complete remission of tumor at 5 mg/kg, iv administered daily once for 3 days measured after 22 days of tumor implantation; assay type: functional, organism-based; design: dose 5 mg/kg
HCT-116 = assay: Cytotoxicity against human HCT116 cells after 72 hrs by SRB assay; assay type: functional, cell-based; settings: HCT-116, 72 h
CCRF-CEM [9] = assay: Cytotoxicity against human taxol-resistant CCRF-CEM cells after 72 hrs by XTT assay; assay type: functional, cell-based
[10] = Toxicity in athymic nu/nu mouse assessed as maximum tolerated dose; assay type: organism-based; settings: in vivo, read-out: Activity
MX1 [11] = assay: Antitumor activity in human MX1 cells xenografted athymic nu/nu mouse assessed as complete remission of tumor at 50 mg/kg, iv administered daily once for 3 days; assay type: functional, organism-based; design: dose 50 mg/kg
[12] = Cytotoxicity against human U87 cells after 72 hrs by WST-1 assay; assay type: functional, cell-based, U-87MG ATCC; settings: U-87 MG
CCRF-CEM [13] = assay: Cross-resistance, IC50 for human vinblastine-resistant CCRF-CEM cells to IC50 for human CCRF-CEM cells; assay type: functional
MX1 [14] = assay: Antitumor activity in human MX1 cells xenografted athymic nu/nu mouse assessed as complete remission of tumor at 15 mg/kg, iv administered daily twice for 4 days; assay type: functional, organism-based; design: dose 15 mg/kg
MX1 [15] = assay: Antitumor activity in human MX1 cells xenografted athymic nu/nu mouse assessed as complete remission of tumor at 18 mg/kg, iv administered daily twice for 2 days; assay type: functional, organism-based; design: dose 18 mg/kg
[16] = Cytotoxicity against human OECM1 cells after 72 hrs by WST-1 assay; assay type: functional, cell-based; settings: OECM1, 72 h
Nucleic Acid [17] = assay: Induction of pEGFP-N1 plasmid DNA interstrand cross-linking at 10 uM after 2 hrs by alkaline agarose gel shift assay; assay type: nucleic-acid assay
PC-3 = assay: Cytotoxicity against human PC3 cells after 72 hrs by WST-1 assay; assay type: functional, cell-based; settings: PC-3, 72 h
CCRF-CEM [18] = assay: Cross-resistance, IC50 for human taxol-resistant CCRF-CEM cells to IC50 for human CCRF-CEM cells; assay type: functional
SK-OV-3 = assay: Antitumor activity in human SKOV3 cells xenografted athymic nu/nu mouse assessed as tumor suppression at 20 mg/kg, iv administered daily once for 4 days measured after 22 days relative to control; assay type: functional
MX1 [19] = assay: Antitumor activity in human MX1 cells xenografted athymic nu/nu mouse assessed as tumor re-growth at 18 mg/kg, iv administered daily twice for 2 days measured after 40 days of tumor implantation; assay type: functional, organism-based; design: dose 18 mg/kg
[20] = Cell cycle arrest in human H1299 cells assessed as accumulation at subG1 phase at 10 uM after 24 hrs by flow cytometry relative to control; assay type: functional, cell-based; settings: NCI-H1299
Nucleic Acid [21] = assay: Induction of DNA interstrand cross-linking in human H1299 cells at 100 uM under aerobic condition for 1 hr followed by irradiated with 20 Gy of X-ray by modified comet assay relative to irradiated untreated control; assay type: cell-based
[22] = Cell cycle arrest in human H1299 cells assessed as accumulation at S phase at 10 uM after 48 hrs by flow cytometry relative to control; assay type: functional, cell-based; settings: NCI-H1299
[23] = Cell cycle arrest in human H1299 cells assessed as accumulation at G2/M phase at 10 uM after 48 hrs by flow cytometry relative to control; assay type: functional, cell-based; settings: NCI-H1299
[24] = Cell cycle arrest in human H1299 cells assessed as accumulation at subG1 phase at 10 uM after 72 hrs by flow cytometry relative to control; assay type: functional, cell-based; settings: NCI-H1299
[25] = Cell cycle arrest in human H1299 cells assessed as accumulation at subG1 phase at 10 uM after 48 hrs by flow cytometry relative to control; assay type: functional, cell-based; settings: NCI-H1299
[26] = Cell cycle arrest in human H1299 cells assessed as accumulation at G2/M phase at 10 uM after 24 hrs by flow cytometry relative to control; assay type: functional, cell-based; settings: NCI-H1299
[27] = Cell cycle arrest in human H1299 cells assessed as accumulation at G0/G1 phase at 10 uM after 72 hrs by flow cytometry relative to control; assay type: functional, cell-based; settings: NCI-H1299
[28] = Cell cycle arrest in human H1299 cells assessed as accumulation at G0/G1 phase at 10 uM after 24 hrs by flow cytometry relative to control; assay type: functional, cell-based; settings: NCI-H1299
[29] = Cell cycle arrest in human H1299 cells assessed as accumulation at G2/M phase at 10 uM after 72 hrs by flow cytometry relative to control; assay type: functional, cell-based; settings: NCI-H1299
[30] = Cell cycle arrest in human H1299 cells assessed as accumulation at S phase at 10 uM after 24 hrs by flow cytometry relative to control; assay type: functional, cell-based; settings: NCI-H1299
[31] = Cell cycle arrest in human H1299 cells assessed as accumulation at G0/G1 phase at 10 uM after 48 hrs by flow cytometry relative to control; assay type: functional, cell-based; settings: NCI-H1299
[32] = Cell cycle arrest in human H1299 cells assessed as accumulation at S phase at 10 uM after 72 hrs by flow cytometry relative to control; assay type: functional, cell-based; settings: NCI-H1299

Row | SMILES | Activity (MX1 [1]) | pIC50 (CCRF-CEM [2]) | pIC50 [3] | pIC50 (MX1 [4]) | Activity (Nucleic Acid [5]) | pIC50 (CCRF-CEM [6]) | Activity (Nucleic Acid [7]) | pIC50 (HCT-116) | pIC50 (CCRF-CEM [9]) | MTD [10] [mg/kg] | Activity (MX1 [11]) | pIC50 [12] | Ratio IC50 (CCRF-CEM [13]) | Activity (MX1 [14]) | Activity (MX1 [15]) | pIC50 [16] | Activity (Nucleic Acid [17]) | pIC50 (PC-3) | Ratio IC50 (CCRF-CEM [18]) | also measured
1 | CNC(=O)OCc1c(COC(=O)NC)c(-c2ccc(OC)cc2)n2c1Cc1ccccc1-2 | Active | 7.31 | 4.37 | 5.72 | Active | 7.20 | Active | 5.59 | 7.15 | 5 | Active | 4.46 | 1.3 | Active | Active | 5.33 | Active | 4.42 | 1.4 | Activity (MX1 [8]): Active
2 | Cc1c(CO)c(CO)c2n1-c1ccccc1C2 | Active | 8.00 | 4.82 | 6.44 | Active | 7.17 | Active | 6.47 | 7.49 | 18 | Active | 4.71 | – | Active | Active | 6.07 | Active | 4.71 | – | Activity (SK-OV-3): 53%; Activity (MX1 [19]): inactive
3 | COc1ccc(-c2c(CO)c(CO)c3n2-c2ccc(OC)cc2C3)cc1 | – | 6.92 | 4.72 | 5.82 | Active | 6.85 | Active | 6.17 | 7.21 | – | – | 4.61 | 1.2 | – | – | 5.81 | Active | 4.63 | 0.53 | Activity [20]: 1.95%; Activity (Nucleic Acid [21]): 35.5%; Activity [22]: 38.9%; Activity [23]: 41.9%; Activity [24]: 15.6%; Activity [25]: 3.88%; Activity [26]: 5.84%; Activity [27]: 1.8%; Activity [28]: 43.7%; Activity [29]: 73.6%; Activity [30]: 50.5%; Activity [31]: 19.3%; Activity [32]: 24.6%
